Test results reported in patent publication US6303596A, “Use of taurolidine for treatment of leukemias” (priority 2000, dated 2001).

Columns and labels:
all other cell lines = test: LDH release (cell membrane integrity), all other cell lines; assay type: cell-based, human; settings: all samples from all other cell lines (n=3); 240 min
Experimental: In these experiments, integrity of cell membranes following taurolidine treatment was assessed by exclusion of trypan blue and by measuring the release of LDH in MM6, K-562, HL-60, and REH cells. Since BCS contains significant amounts of LDH, these experiments were conducted on cells cultured in AIM-V+0.01% BCS. Four hour treatment of cells was conducted in AIM-V containing 0.01% BCS in order to allow subsequent LDH assay without interference from BCS (which occurs in when normal culture medium, containing 10% BCS, is used). Thus, MM6 cells (5×10^5 cells/ml) were treated with taurolidine for four hours in AIM-V+0.01% BCS, after which an aliquot of the cell suspension was removed for measurement of LDH release. A parallel aliquot of cells was lysed by three cycles of freeze/thaw and the quantity of LDH released was taken to be 100%. Remaining cells were rinsed in HBSS and resuspended in growth medium for measurement of growth rates.
HL-60 cells treated with 50 μl taurolidine. In these samples, LDH present in the culture medium was 8.3±2.3% of that released by completely lysed cells, compared with 2.3±0.8% measured in control cultures. […] After 4 hour treatment, cells were rinsed and returned to growth medium and monitored for viability and growth over the following 3 days. […]

REH = test: growth rate after taurolidine treatment, REH; assay type: cell-based; settings: Homo sapiens, 72 h, growth over three days, read-out: growth rate (% of control)
Experimental: FIGS. 8A and 8B depict cell viability and growth rates for REH cell line following taurolidine treatment, in terms of % trypan blue negative cells and % cell number, respectively. Cells were treated with various concentrations of taurolidine for 4 hours in AIM-V+0.01% BCS. After aliquots were collected for LDH assay, the remainder of the culture was rinsed in HBSS and resuspended in RPMI+10% BCS without taurolidine. Counts of trypan blue-negative cells (FIG. 8A), and total cell number (FIG. 8B), were recorded daily thereafter (with the measurement at Day 1 being made immediately after the 4 hour taurolidine treatment). […] Doubling times were determined under each condition, and expressed as a percentage of the rate of doubling of untreated cells. […]
In these experiments, integrity of cell membranes following taurolidine treatment was assessed by exclusion of trypan blue and by measuring the release of LDH in MM6, K-562, HL-60, and REH cells. […] A parallel aliquot of cells was lysed by three cycles of freeze/thaw and the quantity of LDH released was taken to be 100%. […]
HL-60 cells treated with 50 μl taurolidine. In these samples, LDH present in the culture medium was 8.3±2.3% of that released by completely lysed cells, compared with 2.3±0.8% measured in control cultures. […]
^b Growth rate was measured over three days following treatment.

Lymphocytes = test: tissue or blood; assay type: cell-based, human; settings: for induction of apoptosis in lymphocytes: whole blood
Experimental: (§1) FIGS. 15A, 15B, and 15C depict TUNEL analysis of PBMC treated with taurolidine in whole blood, for control cells, taurolidine-treated cells, and anisomycin-treated cells, respectively . Cells were incubated with 500 μg/ml taurolidine for 4 hours, resuspended in fresh medium, incubated for two hours further and processed for TUNEL analysis. Parallel samples were stained with FITC-conjugated anti-CD14 and PI as described herein. Ten thousand events were recorded per sample. TUNEL signal (x -axis) is a measure of DNA fragmentation, while FSC (y-axis) is related to cell size. TUNEL-negative lymphocytes are bounded by rectangle R 1, while TUNEL-negative monocytes (CD 14 positive cells) are bounded by rectangle R2. R3 bounds the TUNEL-positive population of cells. There were minimal numbers of PI-positive cells in 6 hour samples (see Table VI).
(§2) In the second method, DNA fragmentation was detected via TUNEL assay according to the manufacturer's instructions. With this methodology, 2×10^6 cells were fixed with 2% paraformaldehyde, permeabilized with 0.1% Triton X-100/0.1% citrate, incubated at 37° C. with terminal deoxynucleotidyl transferase and FITC-dUTP, rinsed and analyzed by flow cytometry. Enhanced FITC signal indicates apoptosis-specific DNA fragmentation. Gavriali, et al, "Identification of programmed cell death in situ via specific labeling of nuclear DNA fragmentation," J Cell Biol 119:493 (1992). Parallel aliquots of unfixed cells were treated with PI and FITC-conjugated anti-CD14 and analyzed by flow cytometry, in order to identify cells with permeable cell membranes (since PI binds to DNA but is excluded from cells with intact plasma membranes) and also to determine the cell-specificity of the apoptotic signal.
(§3) Taurolidine at 100 μg/ml induced apoptosis of approximately 75% of purified peripheral blood monocytes when these cells were incubated in culture medium. However, in order to more closely mimic the milieu of leukocytes in vivo, induction of apoptosis in PBMC by taurolidine was studied in whole blood (anticoagulated with heparin). As before, apoptosis was quantitated by measuring the loss of monocytes from a TUTNEL-negative (no DNA fragmentation), CD 14 positive population of cells which was concomitant with the appearance of a TUNEL-positive population of cells. Treatment of PBMC in whole blood resulted
(§4) in a shift of the taurolidine dose-response curve. […] As a positive control for induction of apoptosis, some cells were treated with anisomycin, a protein synthesis inhibitor known to induce apoptosis in monocytes.
(§5) ^a Analysis by flow cytometry after staining cells with PI and
(§6) processing for TUNEL. Data are mean ± SD of 2 experiments.
(§7) ^b Percent of cells present in the TUNEL-negative region in control

Monocytes = test: tissue or blood; assay type: cell-based, human
Experimental: as §1, §2, §3, §4, §5, §6, §7

[1] = Homo sapiens, Lymphocyte, 6 h, read-out: % TUNEL-negative
[2] = Homo sapiens, Monocyte, 6 h, read-out: % TUNEL-negative

O=S1(=O)CCN(CN2CCS(=O)(=O)NC2)CN1 [taurolidine, 4,4'-methylenebis(perhydro-1,2,4-thiadiazin 1,1-dioxide)] was tested, and the “LDH levels, % of lysed cell samples” value (all other cell lines) was at most 7%, the activity at 50 µg/mL (REH; 50 μg/ml for 4 h) was 1% and the activity at 100 µg/mL (REH; 100 μg/ml for 4 h) was 18%. For the same molecule, the viability at 200 µg/mL (Lymphocytes; [1]) was 92.7 ± 6%, the viability at 500 µg/mL (Lymphocytes; [1]) was 91.8 ± 6.9% and the “induction of apoptosis in lymphocytes” value (Lymphocytes) was “no evidence for a significant effect”. For the same molecule, the “induction of apoptosis in lymphocytes” value (Lymphocytes; taurolidine up to 500 μg/ml) was “does not induce a significant amount of apoptosis”, the viability at 200 µg/mL (Monocytes; [2]) was 117 ± 11.2% and the viability at 500 µg/mL (Monocytes; [2]) was 27.9 ± 12%. The cytotoxicity at 500 µg/mL (Monocytes; Homo sapiens, Monocyte, read-out: loss of TUNEL-negative monocytes) was 70%, the “induction of apoptosis in whole blood” value (Monocytes; up to 200 μg/ml taurolidine) was “did not induce significant apoptosis” and the “effective concentration in whole blood relative to culture medium” value (Monocytes; whole blood versus purified PBMC in culture medium) was 5 times.
